Marks after values point to notes of the source that are not given here.
Columns and labels:
[1] = test system: severe traumatic brain injury (sTBI); assay: sTBI in rats, HPLC of free amino acids and amino group containing compounds in brain (Example 3); format: in vivo, Male Wistar rats
[2] = test system: LPS system [PBMC and HUVEC+LPS (TLR4 ligand)]; assay: BioMAP LPS system; format: cell-based, Human
Excerpt: (§1) In this study LMW-DS was characterized by profiling in the BioMAP® Diversity PLUS panel. The BioMAP® panel consists of human primary cell-based systems designed to model different aspects of the human body in an in vitro format. The 12 systems in the BioMAP® Diversity PLUS panel (Table 32) allow test agent characterization in an unbiased way across a broad set of systems modeling various human disease states. The BioMA®P systems are constructed with one or more primary cell types from healthy human donors, with stimuli, such as cytokines or growth factors, added to capture relevant signaling networks that naturally occur in human tissue or pathological conditions. […]
(§2) Systems are derived from either single cell types or co-culture systems. […] Test agents prepared in either DMSO (small molecules; final concentration 0.1%) or PBS (biologics) are added at the indicated concentrations 1-hr before stimulation, and remain in culture for 24-hrs or as otherwise indicated (48-hrs, MyoF system; 72-hrs, BT system (soluble readouts); 168-hrs, BT system (secreted IgG)). […] Soluble factors from supernatants are quantified using either HTRF® detection, bead-based multiplex immunoassay or capture ELISA. Overt adverse effects of test agents on cell proliferation and viability (cytotoxicity) are detected by sulforhodamine B (SRB) staining, for adherent cells, and alamarBlue® reduction for cells in suspension. […]

[3] = test system: 3C system [HUVEC+(IL-1β, TNFα and IFNγ)]; assay: BioMAP 3C system; format: cell-based, Human
Excerpt: as §1, §2

[4] = Acute phase 1: 15 mg/kg s.c. 30 min post-sTBI, sacrifice 2 days
[5] = Acute phase 2: 15 mg/kg s.c. 30 min post-sTBI, sacrifice 7 days
[6] = Chronic phase: 15 mg/kg s.c. 3 days post-sTBI, sacrifice 7 days

low molecular weight dextran sulfate [LMW-DS]
compounds of the methyl cycle (Met, L-Cystat, SAH) ([1]; 15 mg/kg s.c.): significant beneficial effects
sTBI-induced increase in brain glutamate (GLU) ([1]; 15 mg/kg s.c. 30 min after sTBI): remarkable inhibition
brain glutamate (excitotoxicity marker) ([1]; 15 mg/kg s.c. injected 3 days after sTBI): no efficacy
ALA, cerebral concentration [1, 4]: 0.50 ± 0.12^a μmol/g (w.w.)
ARG, cerebral concentration [1, 4]: 0.13 ± 0.02^b,d μmol/g (w.w.)
ASN, cerebral concentration [1, 4]: 0.12 ± 0.02^i μmol/g (w.w.)
ASP, cerebral concentration [1, 4]: 2.40 ± 0.56^d,i μmol/g (w.w.)
CITR, cerebral concentration [1, 4]: 0.018 ± 0.004 µmol/g (w.w.)
GABA, cerebral concentration [1, 4]: 1.43 ± 0.25^a μmol/g (w.w.)
GLN, cerebral concentration [1, 4]: 4.78 ± 1.09^a μmol/g (w.w.)
GLU, cerebral concentration [1, 4]: 9.81 ± 1.66^i μmol/g (w.w.)
GLY, cerebral concentration [1, 4]: 0.83 ± 0.25^a,c μmol/g (w.w.)
HIS, cerebral concentration [1, 4]: 0.068 ± 0.015^b μmol/g (w.w.)
ILE, cerebral concentration [1, 4]: 0.038 ± 0.007 µmol/g (w.w.)
L-Cystat, cerebral concentration [1, 4]: 0.185 ± 0.031^b,c,i μmol/g (w.w.)
LEU, cerebral concentration [1, 4]: 0.021 ± 0.005^a,c μmol/g (w.w.)
LYS, cerebral concentration [1, 4]: 0.236 ± 0.057^b,d,h μmol/g (w.w.)
MET, cerebral concentration [1, 4]: 0.016 ± 0.005^d,j μmol/g (w.w.)
ORN, cerebral concentration [1, 4]: 0.014 ± 0.007 µmol/g (w.w.)
PHE, cerebral concentration [1, 4]: 0.031 ± 0.011^b,d μmol/g (w.w.)
SAH, cerebral concentration [1, 4]: 0.033 ± 0.008^b,c,j μmol/g (w.w.)
SER, cerebral concentration [1, 4]: 0.88 ± 0.25^a μmol/g (w.w.)
TAU, cerebral concentration [1, 4]: 4.86 ± 0.85^b μmol/g (w.w.)
THR, cerebral concentration [1, 4]: 0.92 ± 0.29^a μmol/g (w.w.)
TRP, cerebral concentration [1, 4]: 0.030 ± 0.007^b,dg,i μmol/g (w.w.)
TYR, cerebral concentration [1, 4]: 0.15 ± 0.03 µmol/g (w.w.)
VAL, cerebral concentration [1, 4]: 0.042 ± 0.011 µmol/g (w.w.)
ALA, cerebral concentration [1, 5]: 0.52 ± 0.24^a,e μmol/g (w.w.)
ARG, cerebral concentration [1, 5]: 0.16 ± 0.03 µmol/g (w.w.)
ASN, cerebral concentration [1, 5]: 0.13 ± 0.03^i μmol/g (w.w.)
ASP, cerebral concentration [1, 5]: 2.94 ± 0.98^f,j μmol/g (w.w.)
CITR, cerebral concentration [1, 5]: 0.018 ± 0.008 µmol/g (w.w.)
GABA, cerebral concentration [1, 5]: 1.60 ± 0.24^a μmol/g (w.w.)
GLN, cerebral concentration [1, 5]: 3.66 ± 0.41 µmol/g (w.w.)
GLU, cerebral concentration [1, 5]: 9.93 ± 1.56^e,i μmol/g (w.w.)
GLY, cerebral concentration [1, 5]: 0.71 ± 0.16^f,i μmol/g (w.w.)
HIS, cerebral concentration [1, 5]: 0.055 ± 0.019 µmol/g (w.w.)
ILE, cerebral concentration [1, 5]: 0.048 ± 0.017^a μmol/g (w.w.)
L-Cystat, cerebral concentration [1, 5]: 0.173 ± 0.038^b,f,i μmol/g (w.w.)
LEU, cerebral concentration [1, 5]: 0.018 ± 0.004 µmol/g (w.w.)
LYS, cerebral concentration [1, 5]: 0.32 ± 0.04^a,e,i μmol/g (w.w.)
MET, cerebral concentration [1, 5]: 0.022 ± 0.006^b,e,i μmol/g (w.w.)
ORN, cerebral concentration [1, 5]: 0.011 ± 0.005 µmol/g (w.w.)
PHE, cerebral concentration [1, 5]: 0.028 ± 0.010 µmol/g (w.w.)
SAH, cerebral concentration [1, 5]: 0.026 ± 0.010^f,i μmol/g (w.w.)
SER, cerebral concentration [1, 5]: 0.71 ± 0.28^b μmol/g (w.w.)
TAU, cerebral concentration [1, 5]: 3.80 ± 1.19 µmol/g (w.w.)
THR, cerebral concentration [1, 5]: 0.66 ± 0.23 µmol/g (w.w.)
TRP, cerebral concentration [1, 5]: 0.015 ± 0.006 µmol/g (w.w.)
TYR, cerebral concentration [1, 5]: 0.172 ± 0.046^b,f μmol/g (w.w.)
VAL, cerebral concentration [1, 5]: 0.057 ± 0.017 µmol/g (w.w.)
ALA, cerebral concentration [1, 6]: 0.57 ± 0.28^a,e μmol/g (w.w.)
ARG, cerebral concentration [1, 6]: 0.14 ± 0.02 µmol/g (w.w.)
ASN, cerebral concentration [1, 6]: 0.18 ± 0.02^a μmol/g (w.w.)
ASP, cerebral concentration [1, 6]: 4.46 ± 0.70^a,f μmol/g (w.w.)
CITR, cerebral concentration [1, 6]: 0.020 ± 0.006 µmol/g (w.w.)
GABA, cerebral concentration [1, 6]: 1.85 ± 0.65^a μmol/g (w.w.)
GLN, cerebral concentration [1, 6]: 3.98 ± 0.34 µmol/g (w.w.)
GLU, cerebral concentration [1, 6]: 13.58 ± 1.28^a μmol/g (w.w.)
GLY, cerebral concentration [1, 6]: 1.05 ± 0.13^a,f μmol/g (w.w.)
HIS, cerebral concentration [1, 6]: 0.047 ± 0.021 µmol/g (w.w.)
ILE, cerebral concentration [1, 6]: 0.041 ± 0.016^b μmol/g (w.w.)
L-Cystat, cerebral concentration [1, 6]: 0.26 ± 0.05^a,f μmol/g (w.w.)
LEU, cerebral concentration [1, 6]: 0.024 ± 0.032^b,f μmol/g (w.w.)
LYS, cerebral concentration [1, 6]: 0.179 ± 0.036 µmol/g (w.w.)
MET, cerebral concentration [1, 6]: 0.009 ± 0.004^b μmol/g (w.w.)
ORN, cerebral concentration [1, 6]: 0.017 ± 0.009^a,e μmol/g (w.w.)
PHE, cerebral concentration [1, 6]: 0.033 ± 0.011^b μmol/g (w.w.)
SAH, cerebral concentration [1, 6]: 0.050 ± 0.013^a μmol/g (w.w.)
SER, cerebral concentration [1, 6]: 0.93 ± 0.27^a,e μmol/g (w.w.)
TAU, cerebral concentration [1, 6]: 4.49 ± 0.43^a μmol/g (w.w.)
THR, cerebral concentration [1, 6]: 0.75 ± 0.24^a,e μmol/g (w.w.)
TRP, cerebral concentration [1, 6]: 0.012 ± 0.007 µmol/g (w.w.)
TYR, cerebral concentration [1, 6]: 0.21 ± 0.05^f μmol/g (w.w.)
VAL, cerebral concentration [1, 6]: 0.040 ± 0.016^b μmol/g (w.w.)
Decreased biomarker activity [2]: sTNFα
Increased biomarker activity [2]: IL-8
Increased biomarker activity [3]: IL-8

Reference: patent US11534457B2, “Use of dextran sulfate” (priority 2017, dated 2022)
